Assay results: US20130045299A1, “Natural Mold Inhibitor and Methods of Using Same” (priority 2011, published 2013)

Experiments:
mold = assay: Mold-free shelf life of packaged bread, inspected daily (days to mold)
Method: Bread is prepared using the no-time, straight dough method by mixing the following ingredients in a Hobart A200 mixer with a McDuffy attachment for a total of 8 minutes until full gluten development is obtained: flour (100%), water (68%), granulated sugar (7%), shortening (4%), fresh yeast (2.5%), 30% acetic acid vinegar or 300 grain vinegar (0%, 2%, 1% or 0.5%), and citric acid (0% or 0.1%). Mixed dough is rested for 10 minutes on bench then scaled into two 520 gram dough pieces and rounded by hand. Rounded dough is rested 10 minutes then is sheeted and molded into logs. Sheeted and molded logs are placed into oiled bread pans and placed into proof box (National Manufacturing) and set to 110° F. and 80% relative humidity. Dough is proofed to a consistent height, as measured by a template which was 0.75 inches above the rim of the bread pan. Proof time is considered to be time for dough to touch the top of the template minus initial time in the proof box. Proofed dough is then placed into an oven and baked for 20 minutes at a temperature of 420° F. Internal temperature of the bread exiting the oven is 195° F.-200° F. Baked bread is cooled at room temperature on a wire rack for one hour to an internal temperature of between 95° F. and 100° F. After cooling, bread is sliced and packaged in plastic bags and sealed with twist ties. Packaged bread is stored at room temperature 70° F.-75° F. and visually inspected for mold appearance on a daily basis. Bread is considered as expired/failed upon first sign of mold.
Mixed dough is rested for 10 minutes on bench then scaled into two 520 gram dough pieces and rounded by hand. Rounded dough is rested 10 minutes then sheeted and molded into logs. Sheeted and molded logs are placed into oiled bread pans and placed into proof box (National Manufacturing) set to 110° F. and 80% relative humidity. Dough is proofed to a consistent height, as measured by a template which was 0.75 inches above the rim of the bread pan. Proof time is considered to be time for dough to touch the top of the template minus initial time in the proof box. Proofed dough is then placed into an oven and is baked for 20 minutes at a temperature of 420° F. The internal temperature of the bread exiting the oven is 195° F.-200° F. Baked bread is cooled at room temperature on a wire rack for one hour to an internal temperature of between 95° F. and 100° F. After cooling, the bread is sliced and packaged in plastic bags and sealed with twist ties.
Packaged bread is stored at room temperature 70° F.-75° F. Packaged bread is visually inspected for mold appearance on a daily basis. Bread is considered as expired/failed upon first sign of mold.

pH of baked bread = assay type: physicochemical

CCC(=O)[O-].CCC(=O)[O-].[Ca+2] [Calcium Propionate, calcium propionate]
Days to Mold (mold; Table 4, 0.33%): 15 days
Days to Mold (mold; Table 4, 0.5%): 17 days
Days to Mold (mold; Table 6, white pan bread, 0.33%): 14 days
Days to Mold (mold; Table 7, white pan bread, 0.33%): 14 days
Days to Mold (mold; Table 8, 0.33% (flour basis)): 9 days
Days to Mold (mold; Table 8, 0.50% (flour basis)): 12 days
Days to Mold (mold; Table 8, 0.75% (flour basis)): 23 days
Days to Mold (mold; Table 8, 1.00% (flour basis)): 32 days
Days to Mold (mold; Table 9, White Pan Bread, 0.33%): 11 days
Days to Mold (mold; Table 10, White Pan Bread, 0.33%): 15 days
Days to Mold (mold; Table 10, 0.50%): 17 days
pH Bread (pH of baked bread; Table 4, 0.33%): 5.60
pH Bread (pH of baked bread; Table 4, 0.5%): 5.45
pH Bread (pH of baked bread; Table 6, 0.33%): 5.62
pH Bread (pH of baked bread; Table 7, 0.33%): 5.72
pH Bread (pH of baked bread; Table 8, 0.33% (flour basis)): 5.57
pH Bread (pH of baked bread; Table 8, 0.50% (flour basis)): 5.57
pH Bread (pH of baked bread; Table 8, 0.75% (flour basis)): 5.58
pH Bread (pH of baked bread; Table 8, 1.00% (flour basis)): 5.59
